Source: ChEMBL document CHEMBL1201862, “PubChem BioAssay data set” (2004)
Counter-ions that a name gives are not always drawn.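 In this assay, cells in 96-well plates receive the compound at five concentrations for 48 hours. Endpoints are linearly interpolated between the surrounding concentrations. GI50: concentration for 50% inhibition of growth.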 Calls of active or inactive are those of the source. Cut-off read from the data, not from the text of the source: active = GI50 up to about 1.1 µM and inactive = higher.

Assays:
Assay in all cases: NCI-60 cell line screen, 48 h
MOLT-4 = system: MOLT-4
HCC 2998 = system: HCC 2998
OVCAR-5 = system: OVCAR-5
SK-MEL-2 = system: SK-MEL-2
SW-620 = system: SW-620
HCT-116 = system: HCT-116
UACC-257 = system: UACC-257
K562 = system: K562
SK-OV-3 = system: SK-OV-3
RPMI-8226 = system: RPMI-8226
COLO 205 = system: COLO 205
RXF 393 = system: RXF 393
OVCAR-3 = system: OVCAR-3
OVCAR-4 = system: OVCAR-4
EKVX = system: EKVX
NCI-H23 = system: NCI-H23
SK-MEL-28 = system: SK-MEL-28

Row | SMILES | GI50 (MOLT-4) | GI50 (HCC 2998) | GI50 (OVCAR-5) | GI50 (SK-MEL-2) | GI50 (SW-620) | GI50 (HCT-116) | GI50 (UACC-257) | GI50 (K562) | GI50 (SK-OV-3) | GI50 (RPMI-8226) | GI50 (COLO 205) | GI50 (RXF 393) | GI50 (OVCAR-3) | GI50 (OVCAR-4) | GI50 (EKVX) | GI50 (NCI-H23) | GI50 (SK-MEL-28)
1 | COc1nc(NC2OC(COC(C)=O)C(OC(C)=O)C(OC(C)=O)C2OC(C)=O)c2c(OC(C)=O)c(C)c(=O)oc2n1 (configuration not stated) | > 100 µM (inactive) | > 100 µM (inactive) | > 100 µM (inactive) | > 100 µM (inactive) | > 100 µM (inactive) | > 100 µM (inactive) | > 100 µM (inactive) | > 100 µM (inactive) | > 100 µM (inactive) | > 100 µM (inactive) | > 100 µM (inactive) | > 100 µM (inactive) | > 100 µM (inactive) | > 100 µM (inactive) | > 100 µM (inactive) | > 100 µM (inactive) | 
2 | COC1CC(OC)C(O)C(CO)O1 (configuration not stated) | > 100 µM (inactive) | > 100 µM (inactive) | > 100 µM (inactive) | > 100 µM (inactive) | > 100 µM (inactive) | > 100 µM (inactive) | > 100 µM (inactive) | > 100 µM (inactive) | > 100 µM (inactive) |  |  | > 100 µM (inactive) | > 100 µM (inactive) | > 100 µM (inactive) | > 100 µM (inactive) | > 100 µM (inactive) | > 100 µM (inactive)
3 | CCCCN(CC)C(=O)C(=O)Cc1nc2ccc(C(=O)c3ccccc3)cc2nc1O | 21.1 µM (inactive) |  | > 100 µM (inactive) |  | > 100 µM (inactive) | > 100 µM (inactive) | > 100 µM (inactive) | 19.1 µM (inactive) | 85.1 µM (inactive) | 27 µM (inactive) | > 76.2 µM (inactive) | 25.5 µM (inactive) | > 100 µM (inactive) | > 100 µM (inactive) | > 63.2 µM (inactive) | 57.9 µM (inactive) | 73.3 µM (inactive)
4 | CC(C)(C)/N=N/C(C)(C)N=C=O | > 100 µM (inactive) |  | > 100 µM (inactive) | > 100 µM (inactive) | > 100 µM (inactive) | > 100 µM (inactive) | > 100 µM (inactive) | > 100 µM (inactive) | > 100 µM (inactive) | > 100 µM (inactive) | > 100 µM (inactive) | > 100 µM (inactive) | > 100 µM (inactive) | > 100 µM (inactive) | 99.8 µM (inactive) | > 100 µM (inactive) | > 100 µM (inactive)
5 | CCOC(=O)c1sc2c(C(=O)OCC)n3cc(C)cc(C)c3c2c1O | > 100 µM (inactive) | > 100 µM (inactive) | > 100 µM (inactive) | > 100 µM (inactive) | > 100 µM (inactive) | > 100 µM (inactive) |  | > 100 µM (inactive) | > 100 µM (inactive) |  | > 100 µM (inactive) | > 100 µM (inactive) | 63.2 µM (inactive) | > 100 µM (inactive) | 29.5 µM (inactive) | > 100 µM (inactive) | > 100 µM (inactive)
6 | COC(=O)C1=CO[C@@H](C)[C@@H]2Cn3ccc4c5ccccc5nc-4c3C[C@H]12 [ALSTONINE HYDROCHLORIDE] | 90.6 µM (inactive) |  | > 100 µM (inactive) | > 100 µM (inactive) | > 100 µM (inactive) | > 100 µM (inactive) | > 100 µM (inactive) | 55.2 µM (inactive) | > 100 µM (inactive) | 84.3 µM (inactive) | > 100 µM (inactive) | > 100 µM (inactive) | 87.1 µM (inactive) | > 100 µM (inactive) | > 100 µM (inactive) | > 100 µM (inactive) | > 100 µM (inactive)
7 | Nc1nc(NCCO)c(N=O)c(=O)[nH]1 |  |  | > 100 µM (inactive) | > 100 µM (inactive) | > 100 µM (inactive) | > 100 µM (inactive) | > 100 µM (inactive) | > 100 µM (inactive) | > 100 µM (inactive) | > 100 µM (inactive) | > 100 µM (inactive) | > 100 µM (inactive) | > 100 µM (inactive) | > 100 µM (inactive) | > 100 µM (inactive) |  | > 100 µM (inactive)
8 | O=c1[nH]c(=O)n(C2CC(O)C(CO)O2)cc1C(F)(C(F)(F)F)C(F)(F)F (configuration not stated) | > 100 µM (inactive) |  | > 100 µM (inactive) | > 100 µM (inactive) | > 100 µM (inactive) |  | > 100 µM (inactive) | > 100 µM (inactive) | > 100 µM (inactive) | 45.6 µM (inactive) | 71 µM (inactive) | > 100 µM (inactive) | > 100 µM (inactive) | > 100 µM (inactive) | > 100 µM (inactive) | > 100 µM (inactive) | > 100 µM (inactive)
9 | O=C(Cc1c(C(=O)Nc2ccccc2)sc(C(=O)Nc2ccccc2)c1CC(=O)Nc1ccccc1)Nc1ccccc1 |  | > 100 µM (inactive) | > 100 µM (inactive) |  | > 100 µM (inactive) | > 100 µM (inactive) | > 100 µM (inactive) | > 100 µM (inactive) | > 100 µM (inactive) | > 100 µM (inactive) | > 100 µM (inactive) | > 100 µM (inactive) | > 100 µM (inactive) | > 100 µM (inactive) | > 100 µM (inactive) | > 100 µM (inactive) | 0.719 µM (active)
